The test system of the test is Plasmodium berghei. The experiment in a line: Luciferase/luciferin-expressing antifolate-resistant parasites were used to infect a culture of HepG2 cells that were pre-incubated with compounds. Infected hepatocytes emit light due to the luciferase reaction. Assay results are presented as the percent inhibition of light emission compared to control. […]. The format is functional. Conditions: sporozoite; for IC50: read-out: LUCIFERASE INFECTION ASSAY - IC50; for IC90: read-out: LUCIFERASE INFECTION ASSAY - IC90.

Bounds are passed on as bounds.

For the molecule `COC(=O)c1cc2c(N)c(C(=O)c3ccc(Cl)cc3)sc2nc1C(OC)OC`, the IC50 was greater than 7.84 µM and the IC90 was greater than 7.84 µM.
Turning to `COc1ccc(CCN=C(S)Nc2ccccc2C)cc1`, the IC50 was greater than 11 µM and the IC90 was greater than 11 µM.
As to `O=C(Nc1ccccc1)Nc1cccc(Cl)c1`, the 50% inhibitory concentration (IC50) was greater than 13.4 µM and the IC90 is greater than 13.4 µM.
Consider `Cc1ccc(C(=N)NOC(=O)c2cccc(Cn3cc(C(F)(F)F)ccc3=O)c2)cc1`, for which the half-inhibitory concentration (IC50) is greater than 7.69 µM and the IC90 is greater than 7.69 µM.
`C=CCc1ccccc1OCC(O)CN1CCN(c2ccccc2OC)CC1` (stereo not given): the 50% inhibitory concentration (IC50) is greater than 7.88 µM and the concentration for an effect of 90% (IC90) was greater than 7.88 µM.
For `COC(OC)c1ccc(C#N)c(SCC(=O)c2ccc(Cl)cc2)n1`, the half-inhibitory concentration (IC50) is greater than 9.1 µM and the concentration for an effect of 90% (IC90) is greater than 9.1 µM.
Turning to `COc1cc(OC)cc(OCC(O)Cn2ccnc2)c1` (stereo not given), the half-inhibitory concentration (IC50) is greater than 11.9 µM and the 90% effect concentration (IC90) was greater than 11.9 µM.
Consider `Cc1ccc(OCC(=O)NS(=O)(=O)c2ccccc2)cc1`, for which the half-inhibitory concentration (IC50) is greater than 10.8 µM and the IC90 is greater than 10.8 µM.
Consider `CNc1nc(NCc2ccc(C)cc2C)c2sccc2n1`, for which the IC50 was greater than 11.1 µM and the IC90 was greater than 11.1 µM.
`COc1ccccc1CNc1nc(NCc2ccccc2SC)c2sccc2n1`: the half-maximal inhibitory concentration (IC50) is greater than 7.81 µM and the IC90 was greater than 7.81 µM.
As for `COc1ccc(C(C)(O)c2nc(-c3cccc(F)c3)cs2)cc1` (stereo not given), the IC50 worked out at 5.17 µM and the IC90 came to 5.23 µM.
Take `O=[N+]([O-])c1cnc(Sc2nnc(O)n2-c2ccc(OCc3ccccc3)cc2)s1`: the half-maximal inhibitory concentration (IC50) was determined as 3.81 µM and the IC90 is greater than 7.72 µM.
Turning to `Cc1nnc(Sc2ncc([N+](=O)[O-])s2)n1-c1ccc(OCc2ccccc2)cc1`, the half-maximal inhibitory concentration (IC50) was greater than 7.76 µM and the IC90 was greater than 7.76 µM.
For `COc1ccc(Cl)cc1NC(=O)N1CCC(Cc2ccccc2)CC1`, the half-maximal inhibitory concentration (IC50) is greater than 9.2 µM and the IC90 is greater than 9.2 µM.
For the molecule `COc1ccc2[nH]cc(CCNC(=O)Nc3ccc(Cl)c(Cl)c3)c2c1`, the half-maximal inhibitory concentration (IC50) is greater than 8.72 µM and the IC90 is greater than 8.72 µM.
Turning to `Cc1nc(SCc2ccc(C(F)(F)F)cc2)n(C)c(=O)c1Oc1ccc(F)cc1`, the IC50 was greater than 7.78 µM and the IC90 is greater than 7.78 µM.
Take `Cn1c(Sc2cnc(SCc3ccc(Cl)cc3)nc2-c2ccccc2)nnc1C(F)(F)F`: the 50% inhibitory concentration (IC50) is greater than 6.68 µM and the IC90 was greater than 6.68 µM.
Consider `CCOC(=O)c1cc(Sc2ccccc2NC(=O)Nc2ccc(C)cc2)cc(C(=O)OCC)n1`, for which the 50% inhibitory concentration (IC50) was greater than 6.88 µM and the concentration for an effect of 90% (IC90) was greater than 6.88 µM.
Turning to `CC(C)(C)c1ccc(OCC(=N)NC(=O)c2ccc(OC(F)(F)F)cc2)cc1`, the half-maximal inhibitory concentration (IC50) is greater than 8.37 µM and the concentration for an effect of 90% (IC90) is greater than 8.37 µM.
As for `CN(CCOC(=O)Nc1cc(Cl)cc(Cl)c1)c1ncc(C(F)(F)F)cc1Cl`, the IC50 is greater than 7.46 µM and the 90% effect concentration (IC90) is greater than 7.46 µM.
On to `Clc1ccc(-c2nnc(Sc3nc(-c4cccs4)ns3)[nH]2)cc1`, for which the concentration for half-maximal inhibition (IC50) was greater than 8.73 µM and the IC90 was greater than 8.73 µM.
`CC(=C(C#N)C#N)c1ccc2c(c1)OCCO2`: the half-maximal inhibitory concentration (IC50) was greater than 10 µM and the concentration for an effect of 90% (IC90) was greater than 10 µM.
For the molecule `COC(=O)c1cnc(Sc2n[nH]c(=O)n2C2CCCCC2)c([N+](=O)[O-])c1`, the IC50 was greater than 8.7 µM and the IC90 is greater than 8.7 µM.
For the molecule `Nc1ncc(-c2ccc(F)c(Cl)c2)cc1-c1ccc(O)cc1`, the half-maximal inhibitory concentration (IC50) is greater than 10.5 µM and the IC90 was greater than 10.5 µM.
With `CC(=O)c1ccc(N2CCN(Cc3ccc(C)s3)CC2)cc1`, the IC50 was greater than 10.5 µM and the concentration for an effect of 90% (IC90) is greater than 10.5 µM.
Take `COC(=O)c1cnc(Sc2n[nH]c(=O)n2-c2ccc(Cl)cc2)c([N+](=O)[O-])c1`: the IC50 is greater than 8.09 µM and the IC90 was greater than 8.09 µM.
For `O=C(Nc1cccc(Cl)c1)n1nccc1-c1cc(-c2ccccc2)no1`, the IC50 is greater than 9.05 µM and the IC90 is greater than 9.05 µM.
`Nc1ncc(-c2cc(C(F)(F)F)cc(C(F)(F)F)c2)cc1-c1cncc2ccccc12`: the 50% inhibitory concentration (IC50) is greater than 7.62 µM and the 90% effect concentration (IC90) was greater than 7.62 µM.
As to `Cc1cc(NC(=O)COc2ccc(C(C)C)cc2)no1`, the half-maximal inhibitory concentration (IC50) is greater than 12 µM and the IC90 was greater than 12 µM.
Take `FC(F)(F)c1csc(Nc2ccc(Cl)c(Cl)c2)n1`: the IC50 was found to be 10.4 µM and the 90% effect concentration (IC90) was greater than 10.5 µM.
Taken in the same sequence, the figures for `Cc1ccc(Cn2nc(C)cc2C(=O)Sc2ccccc2)cc1` were greater than 10.2 µM and greater than 10.2 µM.
On to `Cc1ccccc1N1CCCn2c1nc1c2c(=O)[nH]c(=O)n1C`, for which the half-maximal inhibitory concentration (IC50) is greater than 10.6 µM and the concentration for an effect of 90% (IC90) is greater than 10.6 µM.
As for `Clc1cc(Cl)cc(-c2nnc(Sc3nc(-c4cccs4)ns3)[nH]2)c1`, the IC50 was greater than 8 µM and the IC90 is greater than 8 µM.
Regarding `Cc1ccc(CSc2n[nH]c(=O)n2C2CC3C=CC2C3)cc1` (stereo not given), the IC50 was greater than 10.5 µM and the IC90 was greater than 10.5 µM.
`COc1ccccc1-c1cc(-c2cccc(OC(F)(F)F)c2)cnc1N`: the IC50 was greater than 9.16 µM and the IC90 is greater than 9.16 µM.
For the molecule `Cc1ccc(CSc2nc(C)c(Oc3ccc(F)cc3)c(=O)n2C)cc1`, the IC50 is greater than 8.91 µM and the concentration for an effect of 90% (IC90) was greater than 8.91 µM.
On to `COc1ccccc1Nc1nc(-c2c(-c3ccc(Cl)cc3Cl)noc2C)cs1`, for which the half-maximal inhibitory concentration (IC50) came to 2.27 µM and the IC90 stood at 7.32 µM.
On the same counts, the results for `CCOC(=O)c1cc(C#N)c(Sc2n[nH]c(=O)n2Cc2ccccc2)nc1C(F)(F)F` are greater than 7.34 µM and greater than 7.34 µM.
On the same counts, the results for `C/C(=N\OC(=O)Nc1ccccc1)c1sc2nc(C(F)(F)F)nn2c1C` are greater than 8.61 µM and greater than 8.61 µM.
Taken in the same sequence, the figures for `C/C(=N\NC(=S)NC(C)(C)C)c1ccc(OCc2ncc(C(F)(F)F)cc2Cl)cc1` were 0.801 µM and 0.938 µM.
On to `FC(F)(F)c1cc(Nc2nc(-c3cc(-c4ccc(Cl)cc4Cl)no3)cs2)cc(C(F)(F)F)c1`, for which the half-maximal inhibitory concentration (IC50) was greater than 6.29 µM and the IC90 was greater than 6.29 µM.
With `CCOc1ccccc1N1CCN(CC(=O)Nc2cc(C)ccc2C)CC1`, the IC50 was greater than 10 µM and the IC90 is greater than 10 µM.
For `O=C(CSc1nnc(-c2ccco2)n1-c1ccc(OCc2ccccc2)cc1)c1ccc(Cl)cc1`, the 50% inhibitory concentration (IC50) was greater than 6.57 µM and the 90% effect concentration (IC90) was greater than 6.57 µM.
Take `CC(C)(C)c1ccc(-c2nnc(SCc3c(Cl)cccc3Cl)n2Cc2ccco2)cc1`: the IC50 stood at 3.43 µM and the 90% effect concentration (IC90) is greater than 6.99 µM.
`COc1cc2c(cc1OC)C(c1cccc(C(F)(F)F)c1)CC(=O)N2` (stereo not given): the half-maximal inhibitory concentration (IC50) is greater than 9.39 µM and the concentration for an effect of 90% (IC90) is greater than 9.39 µM.
As for `O=C(Nc1cccc(Cl)c1)Nc1ccccc1SCc1ncc(C(F)(F)F)cc1Cl`, the IC50 was greater than 6.99 µM and the IC90 is greater than 6.99 µM.
As for `CCCCc1ccc(NC(=O)c2cc(OC)c(OC)c(OC)c2)cc1`, the IC50 is greater than 9.61 µM and the concentration for an effect of 90% (IC90) is greater than 9.61 µM.
Regarding `Nc1ncc(-c2cc(F)c(F)c(F)c2)cc1-c1cccc(O)c1`, the IC50 is greater than 10.4 µM and the IC90 is greater than 10.4 µM.
Consider `O=C(CC1(O)C(=O)Nc2ccccc21)c1ccc(OCC(=O)N2CCOCC2)cc1` (stereo not given), for which the IC50 was greater than 10 µM and the concentration for an effect of 90% (IC90) was greater than 10 µM.
`COC(=O)c1cc(C#N)c(SCC(=O)c2ccc(Cl)cc2)nc1C(OC)OC`: the IC50 was greater than 7.84 µM and the IC90 was greater than 7.84 µM.
On to `CCN(CC)c1ccc(Nc2nc(-c3sc(C)nc3C)cs2)cc1`, for which the concentration for half-maximal inhibition (IC50) was greater than 9.2 µM and the 90% effect concentration (IC90) is greater than 9.2 µM.
On to `CCOC(=O)c1cc(C#N)c(N2CCN(S(=O)(=O)c3ccccc3Cl)CC2)nc1C(F)(F)F`, for which the IC50 was greater than 6.56 µM and the 90% effect concentration (IC90) was greater than 6.56 µM.
In the case of `CN1CCc2nc3sc(C(=O)Nc4ccc(Cl)cc4F)c(N)c3cc2C1`, the IC50 is greater than 8.44 µM and the 90% effect concentration (IC90) is greater than 8.44 µM.
On to `COc1cc(OC)cc(Oc2nc(NC(C)C)nc3ccsc23)c1`, for which the concentration for half-maximal inhibition (IC50) is 1.25 µM and the IC90 turned out to be 1.38 µM.
Consider `CC(C)c1ccc(NC(=O)CCCc2ccccc2)cc1`, for which the 50% inhibitory concentration (IC50) was greater than 11.7 µM and the concentration for an effect of 90% (IC90) was greater than 11.7 µM.
For the molecule `FC(F)(F)c1cccc(NC(=S)Nc2cccnc2N2CCC(C(F)(F)F)CC2)c1`, the IC50 was greater than 7.36 µM and the concentration for an effect of 90% (IC90) is greater than 7.36 µM.
As to `O=C(Nc1ccc(Cl)cc1)n1ncc(Sc2ccc(Cl)cc2)c1-c1ccc(Cl)cc1`, the 50% inhibitory concentration (IC50) was greater than 6.95 µM and the IC90 was greater than 6.95 µM.
For `CCOC(=O)c1c[nH]c2ccc(OC(F)(F)F)cc2c1=O`, the half-maximal inhibitory concentration (IC50) was greater than 11 µM and the IC90 is greater than 11 µM.
As to `CC(C)(C)c1ccc(NC(=O)c2sc3nc4c(c(-c5cccnc5)c3c2N)CCC4)cc1`, the half-inhibitory concentration (IC50) is greater than 7.46 µM and the 90% effect concentration (IC90) is greater than 7.46 µM.
Regarding `CC(C)(C)NC(=O)c1cc(-c2ccccc2Cl)nc2ccccc12`, the IC50 is greater than 9.74 µM and the IC90 is greater than 9.74 µM.
For the molecule `Cc1nn(CC(=O)Nc2cccc(Cl)c2)c(C)c1Oc1ccccc1`, the IC50 was determined as 5.38 µM and the IC90 is greater than 9.27 µM.
In the case of `CC(C)(C)c1ccc(NC(=O)NCCSCc2ccco2)cc1`, the half-maximal inhibitory concentration (IC50) was greater than 9.93 µM and the concentration for an effect of 90% (IC90) was greater than 9.93 µM.
For `FC(F)(F)c1cc(Nc2ncc(-c3ccc4c(c3)OCCCO4)s2)cc(C(F)(F)F)c1`, the IC50 was found to be 5.2 µM and the concentration for an effect of 90% (IC90) was greater than 7.17 µM.
Regarding `Nc1cc(C(F)(F)F)cnc1Nc1ccc(Cl)cc1`, the IC50 is greater than 11.5 µM and the IC90 is greater than 11.5 µM.
For the molecule `O=C(O)COc1ccccc1/C=C1\NC(=S)NC1=O`, the IC50 was greater than 10 µM and the concentration for an effect of 90% (IC90) is greater than 10 µM.
As to `Cc1nn(CC(=O)Nc2cccc(C(F)(F)F)c2)c(C)c1Oc1ccccc1`, the 50% inhibitory concentration (IC50) amounted to 3.94 µM and the concentration for an effect of 90% (IC90) worked out at 8.01 µM.
On the same counts, the results for `CC(=O)Oc1ccccc1C(=O)NCc1ccc(C)cc1` are greater than 11.6 µM and greater than 11.6 µM.
On the same counts, the results for `NC(=O)c1ccc(-c2cc(-c3cc(F)c(F)c(F)c3)cnc2N)cc1` are greater than 9.61 µM and greater than 9.61 µM.
In the case of `COC(=O)c1cnc(Sc2n[nH]c(=O)n2-c2cccc(C(F)(F)F)c2)c([N+](=O)[O-])c1`, the IC50 is greater than 7.48 µM and the 90% effect concentration (IC90) was greater than 7.48 µM.
Consider `Cc1cccc(Cn2nc(C(C)(C)C)cc2-c2nnc(SCc3ccccc3)n2C2CCCCC2)c1`, for which the half-maximal inhibitory concentration (IC50) is greater than 6.6 µM and the IC90 is greater than 6.6 µM.

As a reminder, the IC50 is the concentration that inhibits the measured activity by half. Broadly, the IC90 is the point of the concentration-response curve where the effect stands at 90%.

(Values after ChEMBL document CHEMBL4483862, “Open-source discovery of chemical leads for next-generation chemoprotective antimalarials” (2018).)
